Reference: patent EP4653424A1, “PYRIDAZINONE PARP INHIBITOR, AND PREPARATION METHOD THEREFOR, AND PHARMACEUTICAL COMPOSITION AND USE THEREOF” (China Pharmaceutical University, priority 2023, dated 2024)
pIC50: −log10 of the molar value.

Key:
PARP7 enzyme = biological target: T1, PARP7 enzyme (Homo sapiens, UniProt Q7Z3E1); test: PARP7 Chemiluminescent Assay Kit enzyme inhibition assay; format: biochemical; details: for inhibition at 0.1 µM: compound at 100 nM
T1 construct: purchased BPS Bioscience
T1 sequence (Q7Z3E1 1-657): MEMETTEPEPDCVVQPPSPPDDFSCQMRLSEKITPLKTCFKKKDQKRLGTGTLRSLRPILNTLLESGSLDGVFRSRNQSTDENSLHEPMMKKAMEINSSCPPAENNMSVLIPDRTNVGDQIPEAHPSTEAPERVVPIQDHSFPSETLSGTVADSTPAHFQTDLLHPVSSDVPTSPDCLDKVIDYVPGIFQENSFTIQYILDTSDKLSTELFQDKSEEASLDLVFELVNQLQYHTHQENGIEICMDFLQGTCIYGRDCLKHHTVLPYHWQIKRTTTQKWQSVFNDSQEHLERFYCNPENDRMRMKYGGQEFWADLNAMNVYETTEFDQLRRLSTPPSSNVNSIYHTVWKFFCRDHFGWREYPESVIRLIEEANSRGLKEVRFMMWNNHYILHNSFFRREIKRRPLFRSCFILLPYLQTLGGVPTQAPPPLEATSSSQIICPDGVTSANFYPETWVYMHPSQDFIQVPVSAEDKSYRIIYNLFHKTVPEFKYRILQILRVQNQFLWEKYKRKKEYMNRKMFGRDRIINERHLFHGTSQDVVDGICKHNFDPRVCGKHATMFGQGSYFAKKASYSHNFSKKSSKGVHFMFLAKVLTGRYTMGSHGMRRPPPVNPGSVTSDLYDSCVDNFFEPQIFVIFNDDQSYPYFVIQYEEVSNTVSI
Experimental: Example 60: Inhibitory activity of compounds against PARP7 enzyme
Materials: PARP7 Chemiluminescent Assay Kit, BPS Bioscience; DMSO, Sinopharm, Nivo, PerkinElmer.
Preparation of 10× PBS: 720 mg of KH2PO4, 45 g of NaCl, and 5.311 g of Na2HPO4·12H2O were dissolved in 500 mL of deionized water. The system was adjusted to pH 7.4, sterilized at 121 °C for 30 min, and cooled, and then preserved at 4 °C for later use.
Preparation of 1 × PBS: 10× PBS was diluted 10-fold with deionized water, i.e., 1 part of 10× PBS was diluted with 9 parts of deionized water.
Preparation of wash buffer: 1 × PBS containing 0.05% Tween-20.
Preparation of 1 × PARP buffer: (prepared right before use) 10× PARP buffer was diluted 10-fold with deionized water and placed on ice for later use.
According to the study requirements, the test compound was diluted to the desired concentration with 100% DMSO, and then diluted 10-fold with 1× PARP buffer to give a 10× compound working solution.
• a. 5× histone mixture was thawed on ice the day before the study; • b. 1× histone mixture was prepared by diluting 5× histone mixture into 1× histone mixture with 1× PBS; 25 µL of 1× histone mixture was added to each well of the test plate and incubated overnight at 4 °C; • c. 100 µL of the blocking buffer was taken per well and added to the test plate, and the plate was incubated at 25 °C for 90 min; • d. After the incubation was completed, the liquid in the test plate was discarded, and the plate was washed 3 times; • e. 2.5 µL of compound working solution was taken from each well and added to the test plate according to the experimental layout; a corresponding volume of 1× PARP buffer containing 10% DMSO was added to the positive control wells (Positive control), and a corresponding volume of 1× PARP buffer was added to the blank control wells (Blank); • f. After the enzyme was completely dissolved, the enzyme stock solution was diluted to 6 ng/µL with 1× PARP buffer; • g. The enzyme solution was added to a test well plate at 10 µL/well, and a corresponding volume of 1× PARP buffer was added to the blank control wells, where the enzyme amount was 60 ng/well. Note: this procedure should be performed on ice; • h. […] ELISA ECL Substrate A and ELISA ECL Substrate B in the kit were mixed in a ratio of 1:1, the mixed solution was added to the test plate at 50 µL/well, luminescence detection was immediately performed using Nivo, and the luminescence value (RLU) was read; • m. […] Enzyme inhibition = 1 - % Enzyme Activity; the IC 50 was calculated using GraphPad Prism 8.

[1] = Caco-2 bidirectional (ABBA) permeability assay; format: in vitro ADME; details: human, Caco-2
Experimental: (§1) Materials: test compounds I-A-1, I-A-2, and RBN-2397.
(§2) • (1) Caco-2 cell plating • 1. 600 µL of cell culture medium and 100 µL of cell culture medium were added to the wells of […], respectively; • 2. Before cell inoculation, Transwell was pre-incubated at 37 °C and 5% CO2 for 1 h; • 3. 100 µL of cell suspension (4 × 10^5 cells/mL) was seeded into the culture medium and cultured at 37 °C, 5% CO2, and 95% relative humidity for 14-21 days; • 4. The cell culture medium was replaced once every other day in the first 7 days, and once every day after day 7; • 5. The transepithelial electrical resistance (TEER) of the monolayer membrane was measured using EVOM3. • (2) ABBA process • 1. The plate was washed twice with pre-heated HBSS (10 mM HEPES, pH 7.4) and then incubated at 37 °C for 30 min. • 2. Test compounds were prepared in 1 mM DMSO and diluted 200-fold to 5 µM with HBSS (10 mM HEPES, pH 7.4) and HBSS (100 µM Lucifer Yellow, 10 mM HEPES, pH 7.4). • 3. Apical to basal direction: 200 µL of 5 µM working solution (100 µM Lucifer Yellow) was added to the apical compartment, and 600 µL of HBSS (10 mM HEPES, pH 7.4) was added to the basal compartment. • 4. Basal to apical direction: 600 µL of 5 µM working solution was added to the basal compartment, and 200 µL of HBSS (100 µM Lucifer Yellow, 10 mM HEPES, pH 7.4) was added to the apical compartment. • 5. 100 µL of 5 µM working solution was transferred to a sample plate containing 400 µL of cold methanol, and IS* was C0. • 6. The cell plate was incubated at 37 °C, 5% CO2, and 95% relative humidity for 2 h. • 7. 5 µL of the working solution was transferred from the apical compartment and the basal compartment to the plate. After 0.5 h of incubation, the 427 nm excitation values and 536 nm emission values were read by the Lucifer Yellow leakage detector. • 8. After 2 h of incubation, 100 µL of the solution was transferred from the apical and basal compartments with IS* to a sample plate containing 400 µL of cold methanol. • 9. The sample plate was centrifuged at 3220 g for 40 min. • 10. 100 µL of the supernatant was transferred to an assay plate containing an appropriate volume of water for LC-MS/MS analysis. • (3) Calculation
(§3) The apparent permeability coefficient (Papp, cm/s) and the efflux ratio were calculated using Microsoft Excel. Papp = (VA × Cacceptor × 100)/(Area × Time × Cinitial,donor) [formula] Efflux Ratio = (Papp(B−A))/(Papp(A−B)) [formula] Table 3. Physicochemical properties of test compounds

Caco-2 cell = test: Caco-2 bidirectional (ABBA) permeability assay; format: in vitro ADME
Experimental: as §1, §2, §3

SMILES	pIC50 (PARP7 enzyme)	inhibition at 0.1 µM (PARP7 enzyme)	efflux ratio at 2 h, 5 µM ([1]; Papp(B-A)/Papp(A-B))	Papp A→B at 2 h, 5 µM ([1]; apical to basal, 5 µM, 2 h)	Papp B→A at 2 h, 5 µM ([1]; basal to apical, 5 µM, 2 h)	efflux ratio (Caco-2 cell; Caco-2, summary in words)	membrane permeability (Caco-2 cell; Caco-2, summary in words)	efflux ratio (Caco-2 cell; Papp(B-A)/Papp(A-B), Caco-2)	PappA→B (1E-6 cm/s) (Caco-2 cell; apical to basal, 5 µM, 2 h, Caco-2)	PappB→A (1E-6 cm/s) (Caco-2 cell; basal to apical, 5 µM, 2 h, Caco-2)
O=c1[nH]ncc(NCC#Cc2ccccc2C(F)(F)F)c1C(F)(F)F [I-A-1, 4-trifluoromethyl-5-((3-(2-(trifluoromethyl)phenyl)prop-2-yn-1-yl)amino)pyridazin-3(2 H)-one]	> 7.00	≥ 50%	0.52	39.9 ×10⁻⁶ cm/s	20.9 ×10⁻⁶ cm/s	lower efflux ratio	better membrane permeability			
O=C(CCNc1cn[nH]c(=O)c1C(F)(F)F)c1ccccc1 [I-D-1, 5-((3-oxo-3-phenylpropyl)amino)-4-(trifluoromethyl)pyridazin-3(2 H)-one]	> 7.00	≥ 50%								
C[C@@H](COCCC(=O)N1CCN(c2ncc(C(F)(F)F)cn2)CC1)Nc1cn[nH]c(=O)c1C(F)(F)F [RBN-2397, reference compound]							poor membrane permeability	5.9	4.1 1E-6 cm/s	24 1E-6 cm/s
